The values that follow are results of earlier work, collected in patent US6376509B2, “Melanocortin receptor agonists” (Merck & Co., Inc., priority 2000, dated 2002).

For one data set, the system named is erectile dysfunction. To be noted: for duration of effect / onset of action: after an oral dose; for share of patients with adequate response: oral, men with erectile dysfunction.
Data set [1] has as its system psychogenic erectile dysfunction.

As to `Cc1ccc(N(CC2=NCCN2)c2cccc(O)c2)cc1` [phentolamine], in the data set on erectile dysfunction, the duration of effect was 2 h, the onset of action is 5 to 30 min and the “share of patients with adequate response” value is recorded as 35-40%.
For `CCCc1nn(C)c2c(=O)[nH]c(-c3cc(S(=O)(=O)N4CCN(C)CC4)ccc3OCC)nc12` [sildenafil], in the data set on erectile dysfunction, the duration of effect entry is listed as “about 4 hours”, the onset of action is 30 to 60 min and the “share of patients with adequate response” value was “about 70%”.
As for “Ac-Nle-c[Asp-His-DPhe-Arg-Trp-Lys]-NH2 [MT-II]”, the “absorption into the systemic circulation” value in data set [1] (in vivo, po) is recorded as “not absorbed into the systemic circulation”. The response rate in data set [1] (injected intramuscularly or subcutaneously, males with psychogenic erectile dysfunction) was 75%. Moreover, in data set [1] (subcutaneous injection), the duration of action entry is listed as “approximately 2.5 hours” and the “time to onset of erection” value was 10 to 20 min.
